Test results from ChEMBL document CHEMBL1201862, “PubChem BioAssay data set” (2004).
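Five compound concentrations were applied to cells in 96-well plates for 48 hours; endpoints were derived by simple linear interpolation of the resulting dose-response curve. Abbreviation: GI50, concentration required for 50% inhibition of growth.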 Activity calls are given as the source filed them. Cut-off read from the data, not from the text of the source: active = GI50 up to about 1.1 µM and inactive = higher.

How the values were obtained:
Test in all cases: inhibition of tumour cell growth, NCI panel, 48 h
NCI-H522 = system: NCI-H522
ACHN = system: ACHN
KM12 = system: KM12
HT-29 = system: HT-29
SK-MEL-5 = system: SK-MEL-5
UACC-62 = system: UACC-62
M14 = system: M14
HCT-15 = system: HCT-15
SNB-75 = system: SNB-75
SF-295 = system: SF-295
A549 = system: A549
U-251 = system: U-251
SN12C = system: SN12C
COLO 205 = system: COLO 205
SW-620 = system: SW-620
NCI-H226 = system: NCI-H226
BT-549 = system: BT-549
OVCAR-8 = system: OVCAR-8
PC-3 = system: PC-3
CAKI-1 = system: CAKI-1

Compound | GI50 (NCI-H522) | GI50 (ACHN) | GI50 (KM12) | GI50 (HT-29) | GI50 (SK-MEL-5) | GI50 (UACC-62) | GI50 (M14) | GI50 (HCT-15) [µM] | GI50 (SNB-75) | GI50 (SF-295) | GI50 (A549) | GI50 (U-251) | GI50 (SN12C) | GI50 (COLO 205) | GI50 (SW-620) | GI50 (NCI-H226) | GI50 (BT-549) | GI50 (OVCAR-8) | GI50 (PC-3) | GI50 (CAKI-1)
O=C(O)c1ccccc1/C=C1\Cc2ccc3c(c2C1=O)CCCC3 | 25.2 µM (inactive) | 36.5 µM (inactive) | 39.8 µM (inactive) | 50.6 µM (inactive) | 15.9 µM (inactive) | 21.1 µM (inactive) | 28.9 µM (inactive) | 37.1 | 27 µM (inactive) | 31.6 µM (inactive) | 42.7 µM (inactive) | 44.7 µM (inactive) | 26.2 µM (inactive) | 34.4 µM (inactive) | 30.8 µM (inactive) | 28.6 µM (inactive) | 41 µM (inactive) | 68.7 µM (inactive) |  | 
COc1ccc(/C=C2\C=Cc3ccccc32)cc1OC | 30.4 µM (inactive) | 78.2 µM (inactive) | > 100 µM (inactive) | 88.3 µM (inactive) | 43.2 µM (inactive) | 23.1 µM (inactive) | > 100 µM (inactive) | > 100 | 20.6 µM (inactive) | > 100 µM (inactive) | > 100 µM (inactive) | 76 µM (inactive) | 60 µM (inactive) | > 100 µM (inactive) | > 100 µM (inactive) | 28.4 µM (inactive) |  | > 100 µM (inactive) | 46.5 µM (inactive) | > 100 µM (inactive)
COc1cc(C(Cc2ccccc2)NC(C)=O)oc(=O)c1 (stereo not drawn) | > 100 µM (inactive) | > 100 µM (inactive) | > 100 µM (inactive) | > 100 µM (inactive) | > 100 µM (inactive) | > 100 µM (inactive) | > 100 µM (inactive) | > 100 | 25 µM (inactive) | > 100 µM (inactive) | > 100 µM (inactive) | > 100 µM (inactive) | > 100 µM (inactive) | > 100 µM (inactive) | > 100 µM (inactive) | > 100 µM (inactive) |  | > 100 µM (inactive) |  | > 100 µM (inactive)
NC(=S)N/N=C\CC(O)(C(F)(F)F)C(F)(F)F | > 10 µM (inactive) | > 10 µM (inactive) | > 10 µM (inactive) | > 10 µM (inactive) | > 10 µM (inactive) | > 10 µM (inactive) | > 10 µM (inactive) | > 10 | > 10 µM (inactive) | > 10 µM (inactive) | > 10 µM (inactive) | > 10 µM (inactive) | > 10 µM (inactive) | > 10 µM (inactive) | > 10 µM (inactive) | > 10 µM (inactive) |  | > 10 µM (inactive) | > 10 µM (inactive) | > 10 µM (inactive)
COc1cc(OC)c(OC)cc1/C=C1\C=Cc2ccccc21 | 12.1 µM (inactive) | 27.1 µM (inactive) | 10.3 µM (inactive) | 11.7 µM (inactive) | 11.1 µM (inactive) |  |  | 12.4 | 2.04 µM (inactive) | 18.5 µM (inactive) | 26.5 µM (inactive) | 9.12 µM (inactive) | 18.8 µM (inactive) | 7.96 µM (inactive) | 11.1 µM (inactive) | 26.9 µM (inactive) |  | 31.7 µM (inactive) | 5.52 µM (inactive) | 
NC(=S)N/N=C1/CCCC2CCCC[C@@H]12 (stereo partly drawn) | 80.4 µM (inactive) | > 100 µM (inactive) | > 100 µM (inactive) | > 100 µM (inactive) | 97.3 µM (inactive) | > 100 µM (inactive) | > 100 µM (inactive) | > 100 | > 100 µM (inactive) | > 100 µM (inactive) | > 100 µM (inactive) | > 100 µM (inactive) |  | > 100 µM (inactive) | > 100 µM (inactive) | > 100 µM (inactive) |  | > 100 µM (inactive) | > 100 µM (inactive) | > 100 µM (inactive)
CNC1=C(C)C(=O)C(C)=C(C(C)(C)CC(=O)n2cc(F)c(=O)[nH]c2=O)C1=O | 35 µM (inactive) | 38.5 µM (inactive) | 14.5 µM (inactive) | 12.5 µM (inactive) | 12.3 µM (inactive) | 45.4 µM (inactive) | 48.1 µM (inactive) | 19.9 | 69.3 µM (inactive) | > 67.9 µM (inactive) | 5.09 µM (inactive) | > 75.9 µM (inactive) | 8.67 µM (inactive) | 23.6 µM (inactive) | 39.9 µM (inactive) | 43.4 µM (inactive) |  | 31.6 µM (inactive) |  | 22.8 µM (inactive)
C=CC[C@@]1(C#N)C[C@H](C[C@]2(C#N)C[C@H](CCl)OC(C)(C)O2)OC(C)(C)O1 | 46 µM (inactive) | > 100 µM (inactive) | > 100 µM (inactive) | > 100 µM (inactive) | 63.5 µM (inactive) | > 100 µM (inactive) | > 100 µM (inactive) | > 100 | 64.4 µM (inactive) | > 100 µM (inactive) | > 100 µM (inactive) | > 100 µM (inactive) | > 100 µM (inactive) | > 100 µM (inactive) | > 100 µM (inactive) | 38.4 µM (inactive) |  | > 100 µM (inactive) |  | > 100 µM (inactive)
CC(C)N(C(=O)C12C3C4C5C3C1(C(=O)N(C(C)C)C(C)C)C5(C#N)C42)C(C)C (stereo not drawn) | > 100 µM (inactive) | > 100 µM (inactive) | > 100 µM (inactive) | > 100 µM (inactive) | > 100 µM (inactive) | > 100 µM (inactive) | > 100 µM (inactive) | 67.5 | > 100 µM (inactive) | > 100 µM (inactive) | 86.3 µM (inactive) | > 100 µM (inactive) | > 100 µM (inactive) | 40.5 µM (inactive) | 17.9 µM (inactive) | > 100 µM (inactive) |  | > 100 µM (inactive) |  | > 100 µM (inactive)
COC(=O)/C([Se]c1c(C)cc(C)cc1C)=C(\[Se]c1c(C)cc(C)cc1C)C(=O)OC | > 100 µM (inactive) | > 100 µM (inactive) | > 100 µM (inactive) | > 100 µM (inactive) | > 100 µM (inactive) | > 100 µM (inactive) | > 100 µM (inactive) | > 100 | > 100 µM (inactive) | > 100 µM (inactive) | > 100 µM (inactive) | > 100 µM (inactive) | > 100 µM (inactive) | > 100 µM (inactive) | > 100 µM (inactive) | > 100 µM (inactive) |  | > 100 µM (inactive) |  | > 100 µM (inactive)
[O-][N+]1=C(c2ccccc2)COc2ccccc21 | > 100 µM (inactive) | > 100 µM (inactive) | > 100 µM (inactive) | > 100 µM (inactive) | > 100 µM (inactive) | > 100 µM (inactive) | > 100 µM (inactive) | > 100 | > 100 µM (inactive) | > 100 µM (inactive) | > 100 µM (inactive) | > 100 µM (inactive) | > 100 µM (inactive) | > 100 µM (inactive) | > 100 µM (inactive) | > 100 µM (inactive) |  | > 100 µM (inactive) |  | > 100 µM (inactive)
